Test: mn = molality of the nth substance listed, in mol/kg
Conditions: Liquid, Taylor dispersion method

[Cl-].[K+] [potassium chloride] + O
Conditions	binary diffusion coefficient [m2/s]
298.15 K, 160 kPa, m1 = 0	1.94e-09
298.15 K, 240 kPa, m1 = 1	1.89e-09
298.15 K, 290 kPa, m1 = 2.5	2.02e-09
298.15 K, 480 kPa, m1 = 4.5	2.17e-09
298.15 K, 2290 kPa, m1 = 2.5	2.02e-09
298.15 K, 4500 kPa, m1 = 2.5	2.04e-09
298.15 K, 10170 kPa, m1 = 1	1.91e-09
298.15 K, 14990 kPa, m1 = 0	1.94e-09
298.15 K, 24920 kPa, m1 = 2.5	2.04e-09
298.15 K, 27060 kPa, m1 = 4.5	2.14e-09
298.15 K, 28210 kPa, m1 = 1	1.92e-09
298.15 K, 30920 kPa, m1 = 0	1.95e-09
298.15 K, 32600 kPa, m1 = 2.5	2.05e-09
298.15 K, 37390 kPa, m1 = 2.5	2.04e-09
298.15 K, 38630 kPa, m1 = 1	1.92e-09
298.15 K, 43800 kPa, m1 = 4.5	2.17e-09
298.15 K, 45590 kPa, m1 = 1	1.95e-09
298.15 K, 47430 kPa, m1 = 2.5	2.04e-09
298.15 K, 48170 kPa, m1 = 0	1.95e-09
298.15 K, 59030 kPa, m1 = 1	1.96e-09
298.15 K, 62940 kPa, m1 = 0	1.97e-09
298.15 K, 64970 kPa, m1 = 2.5	2.07e-09
298.15 K, 66020 kPa, m1 = 4.5	2.18e-09
298.15 K, 66170 kPa, m1 = 2.5	2.08e-09
298.15 K, 67070 kPa, m1 = 1	1.98e-09
298.15 K, 67630 kPa, m1 = 2.5	2.08e-09
323.15 K, 500 kPa, m1 = 4.5	3.34e-09
323.15 K, 580 kPa, m1 = 2.5	3.15e-09
323.15 K, 610 kPa, m1 = 1	3.03e-09
323.15 K, 640 kPa, m1 = 0	3.02e-09
323.15 K, 3950 kPa, m1 = 4.5	3.32e-09
323.15 K, 15300 kPa, m1 = 1	3.06e-09
323.15 K, 15460 kPa, m1 = 0	3.02e-09
323.15 K, 31370 kPa, m1 = 4.5	3.35e-09
323.15 K, 33580 kPa, m1 = 0	3.08e-09
323.15 K, 40890 kPa, m1 = 2.5	3.12e-09
323.15 K, 43400 kPa, m1 = 1	3.08e-09
323.15 K, 45210 kPa, m1 = 2.5	3.18e-09
323.15 K, 47480 kPa, m1 = 2.5	3.17e-09
323.15 K, 49570 kPa, m1 = 4.5	3.29e-09
323.15 K, 52060 kPa, m1 = 1	3.1e-09
323.15 K, 60490 kPa, m1 = 2.5	3.12e-09
323.15 K, 62690 kPa, m1 = 4.5	3.35e-09
323.15 K, 64860 kPa, m1 = 2.5	3.15e-09
323.15 K, 68560 kPa, m1 = 0	3.09e-09
323.15 K, 68970 kPa, m1 = 1	3.1e-09
348.15 K, 650 kPa, m1 = 0	4.48e-09
348.15 K, 660 kPa, m1 = 1	4.23e-09
348.15 K, 700 kPa, m1 = 2.5	4.52e-09
348.15 K, 730 kPa, m1 = 4.5	4.65e-09
348.15 K, 12830 kPa, m1 = 4.5	4.59e-09
348.15 K, 15720 kPa, m1 = 0	4.49e-09
348.15 K, 18050 kPa, m1 = 2.5	4.55e-09
348.15 K, 25820 kPa, m1 = 1	4.25e-09
348.15 K, 29270 kPa, m1 = 0	4.44e-09
348.15 K, 29960 kPa, m1 = 2.5	4.57e-09
348.15 K, 31120 kPa, m1 = 1	4.26e-09
348.15 K, 32970 kPa, m1 = 4.5	4.62e-09
348.15 K, 35870 kPa, m1 = 1	4.24e-09
348.15 K, 39760 kPa, m1 = 1	4.23e-09
348.15 K, 41210 kPa, m1 = 1	4.25e-09
348.15 K, 41980 kPa, m1 = 1	4.25e-09
348.15 K, 45150 kPa, m1 = 2.5	4.58e-09
348.15 K, 45330 kPa, m1 = 1	4.26e-09
348.15 K, 46780 kPa, m1 = 0	4.49e-09
348.15 K, 62420 kPa, m1 = 1	4.24e-09
348.15 K, 64020 kPa, m1 = 1	4.25e-09
348.15 K, 65910 kPa, m1 = 4.5	4.63e-09
348.15 K, 66700 kPa, m1 = 0	4.52e-09
348.15 K, 67090 kPa, m1 = 1	4.25e-09
348.15 K, 68900 kPa, m1 = 2.5	4.59e-09
373.15 K, 740 kPa, m1 = 4.5	6.25e-09
373.15 K, 820 kPa, m1 = 0	6.11e-09
373.15 K, 820 kPa, m1 = 1	5.94e-09
373.15 K, 940 kPa, m1 = 2.5	5.92e-09
373.15 K, 17140 kPa, m1 = 2.5	5.92e-09
373.15 K, 17780 kPa, m1 = 4.5	6.22e-09
373.15 K, 23410 kPa, m1 = 1	5.93e-09
373.15 K, 24180 kPa, m1 = 0	6.14e-09
373.15 K, 24360 kPa, m1 = 2.5	5.94e-09
373.15 K, 31320 kPa, m1 = 2.5	5.89e-09
373.15 K, 41280 kPa, m1 = 4.5	6.24e-09
373.15 K, 42090 kPa, m1 = 1	5.94e-09
373.15 K, 43130 kPa, m1 = 0	6.11e-09
373.15 K, 47550 kPa, m1 = 2.5	5.98e-09
373.15 K, 47900 kPa, m1 = 4.5	6.21e-09
373.15 K, 54290 kPa, m1 = 4.5	6.24e-09
373.15 K, 54410 kPa, m1 = 4.5	6.24e-09
373.15 K, 57260 kPa, m1 = 2.5	5.86e-09
373.15 K, 59590 kPa, m1 = 2.5	5.96e-09
373.15 K, 63050 kPa, m1 = 2.5	5.96e-09
373.15 K, 64210 kPa, m1 = 1	5.97e-09
373.15 K, 64280 kPa, m1 = 0	6.18e-09
373.15 K, 65700 kPa, m1 = 4.5	6.27e-09
423.15 K, 3080 kPa, m1 = 0	1.03e-08
423.15 K, 3410 kPa, m1 = 1	9.43e-09
423.15 K, 4440 kPa, m1 = 2.5	9.69e-09
423.15 K, 13020 kPa, m1 = 4.5	9.27e-09
423.15 K, 15130 kPa, m1 = 1	9.45e-09
423.15 K, 15180 kPa, m1 = 2.5	9.67e-09
423.15 K, 15260 kPa, m1 = 2.5	9.68e-09
423.15 K, 18510 kPa, m1 = 0	1.03e-08
423.15 K, 33580 kPa, m1 = 0	1.03e-08
423.15 K, 34630 kPa, m1 = 2.5	9.7e-09
423.15 K, 34720 kPa, m1 = 1	9.45e-09
423.15 K, 40540 kPa, m1 = 4.5	9.29e-09
423.15 K, 56030 kPa, m1 = 2.5	9.7e-09
423.15 K, 61620 kPa, m1 = 1	9.48e-09
423.15 K, 63300 kPa, m1 = 0	1.03e-08
423.15 K, 65050 kPa, m1 = 2.5	9.72e-09
423.15 K, 65640 kPa, m1 = 1	9.49e-09
423.15 K, 68930 kPa, m1 = 4.5	9.3e-09
